Measurements reported in patent publication US7074807B2, “Compositions and methods for inducing cell death” (Georgetown University, priority 1998, dated 2006).

What was measured:
MDA-MB 231 cells [1] = test: Protein tyrosine phosphorylation (anti-PY immunoprecipitation/immunoblot); type: cell-based, human; settings: 10 mM, 15 min to 2 h
Method: FIG. 2. Effects of tempol and tempo on protein tyrosine phosphorylation. Subconfluent cultures were grown in serum-free medium overnight, followed by treatment with tempol (10 mM) or tempo (10 mM) for indicated times and lysis. Normalized protein contents (1 mg) were immunoprecipitated with agarose-conjugated anti-PY MAb, and then immunoblotted with anti-PY MAb. Data shown is representative of two independent experiments. UT, untreated cells grown overnight in serum-free medium.
Cell Culture, Treatments with Tempol and Tempo, and Preparation of Cell Lysates—MDA-MB 231 human breast cancer cells were grown to near confluence in 75 cm^2 tissue culture flasks in Improved Minimum Essential Medium (IMEM) (Cellgro) containing 10% fetal bovine serum (FBS) and 2 mM L-glutamine in a humidified atmosphere of 5% CO2: 95% air at 37° C. Cells were trypsinized and plated into a 150 mm tissue culture dish (two dishes per flask) overnight in medium containing 10% FBS followed by two washes with phosphate buffer saline (PBS). […]
Immunoprecipitation and Immunoblotting—Whole cell lysate (1 mg) was immunoprecipitated with the appropriate agarose-conjugated antibody (1 ug/ml of lysis buffer) overnight at 4° C. with constant agitation. […] The bands of interest were quantified by ImageQuant software version 3.3 (Molecular Dynamics Personal Densitometer, Sunnyvale, Calif.). […]

MDA-MB 231 cells [2] = test: Apoptosis assay (annexin V-FITC/propidium iodide flow cytometry); settings: 10 mM, MDA-MB 231; for apoptosis/necrosis, time course analysis: up to 3 h
Method: FIGS. (7A1–7A3), (7B1–7B2), (7C1–7C3), (7D1–7D2), (7E1–7E3), (7F1–7F2). […] Cells were grown in serum-free medium overnight in T-25 flasks and treated with tempol (10 mM) or tempo (10 mM) for various times, trypsinized, and then resuspended in 200 ul 1× binding buffer as described in experimental procedures. The cell suspension was double-stained with annexin V-FITC and propidium iodide and analyzed by flow cytometry. Background signal was determined by comparison with double-stained, single-stained, or unstained control cells. (7A1–7A3), (7C1–7C3), and (7E1–7E3) are cytograms showing a relative distribution of viable (V), apoptotic (A), and necrotic (N) cells at 2 h following tempol or tempo treatment of MDA-MB 231 cells (A), PCI-04A cells (C), and PC-3 cells (E). (7B1–7B3), (7D1–7D2), and (7F1–7F2) are time course analyses of MDA-MB 231 cells (B), PCT-04A cells (D), and PC-3 cells (F). 100,000 cells were analyzed at each time point in triplicate (B) or quadruplicate (D and F). Solid bars, 1% ethanol, striped bars, 10 mM tempol, empty bars, 10 mM tempo. […] Data shown are representative from three to four independent experiments. (7B1–7B2), Time course analysis of MDA-MB 231 cells undergoing apoptosis (annexin V-FITC staining) (7B1), or necrosis (propidium iodide staining) (7B2). Values shown are mean±s.d. of triplicate determinations per time point in each treatment category, and representative of three to four independent experiments. […] (7D1–7D2), Time course analysis of PCI-04A cells undergoing apoptosis (annexin V-FITC staining) (7D1), or necrosis (propidium iodide staining) (7D2). Values shown are mean±s.d. of quadruplicate determinations per time point in each treatment category. […] (7F1–7F2), Time course analysis of PC-3 cells undergoing apoptosis (annexin V-FITC staining) (7F1), or necrosis (propidium iodide staining) (7F2). Values shown are mean±s.d. of quadruplicate determinations per time point in each treatment category. Control/C, cells treated with 1% ethanol for 2 h.
Apoptosis Assay—ApoAlert Annexin V apoptosis detection system (Clontech Lab Inc., Palo Alto, Calif.) was used to measure the relative distribution of apoptotic and necrotic cells. Briefly, cells were seeded at a density of 1×10^6 cells per 25 cm^2 tissue culture flask in medium containing 10% FBS overnight, followed by washing twice in serum-free medium. Cells were maintained overnight in serum-free medium and exposed to tempol (10 mM) or tempo (10 mM) for various times. This was followed by rinsing twice with serum-free medium prior to trypsinization, dilution in two volumes of serum-free medium, and centrifugation at 10,000× g. The cell pellet was washed once with PBS and resuspended in 200 ul of 1× binding buffer. The cell suspension was double-labeled with fluorescein isothiocyanate (FITC)-labeled annexin V (10 ul) and propidium iodide (PI) (10 ul) according to the manufacturer's instructions. Unlabeled cells or untreated cells labeled with either FITC-annexin V or PI, or double-labeled served as internal controls for the background signal. The intensity of the dye uptake by cells was detected using FACStar plus Flow Cytometer (Becton Dickerson, Lincoln Park, N.J.), and data were analyzed using Reproman True Facts software (Seattle, Wash.). Viable cells were FITC−/PI−, apoptotic cells were FITC+/PI−, and necrotic cells were FITC+/PI+.

Row | Structure (SMILES) | protein tyrosine phosphorylation (MDA-MB 231 cells [1]) | apoptotic cells (A) (MDA-MB 231 cells [2]; 2 h) | viable cells (V) (MDA-MB 231 cells [2]; 2 h) | apoptosis/necrosis, time course analysis (MDA-MB 231 cells [2])
1 | CC1(C)CCCC(C)(C)N1[O] [tempo, 2,2,6,6-tetramethylpiperidine-N-oxyl] | conspicuous increase | 52.42% | 35.83% | steady increase in the number of apoptotic cells for upto 2 h, followed by a considerable increase in the number of necrotic cells by 3 h
2 | CC1(C)CC(O)CC(C)(C)N1[O] [tempol, 4-hydroxy-tempo, reference compound] | minimal protein tyrosine phosphorylation | 6.32% | – | did not induce apoptosis or necrosis
